Assays:
[1] = tested on: S30 extract peptidyltransferase; experiment: Peptidyltransferase gel-shift assay in the presence of antibiotics, S30 extract; type: biochemical, E. coli; details: 100 μM antibiotic, substrates CCA-Met-Biotin and 32P-CCA-NH-Phe, 37° C.
Method: (§1) Assay reactions were carried out with: 50S or 70S subunits from the bacterial ribosome (prepared from E. coli MRE600), or S30 extract (purchased from Promega); 50 μM CCA-Met-Biotin or tRNA-Met-Biotin; trace amounts of ^32P-CCA-NH-Phe (˜0.5 nM); 100 μM antibiotic in the presence of 50 mM Tris•HCl (pH 7.5); 35 mM MgCl2; 100 mM NH4Cl; and 1000 mM KCl, at 37° C. For each reaction, the same amount of 50S or 70S (10 pmol) was included, but the S30 concentration was not determined.
(§2) Reactions were initiated by addition of ^32P-CCA-NH-Phe. A 1-μL aliquot of the reaction mixture was removed at specific time points, quenched with 2 μL quench buffer (formamide +0.05% xylene cyanol), and loaded on 24%/7.5 M urea polyacrylamide denaturing gel.
(§3) The substrates used in these reactions were CCA-Met-Biotin and ^32P-CCA-NH-Phe. The lower band corresponds to the labeled ^32P-CCA-NH-Phe and the top band is the dipeptide product (^32P-CCA-NH-Phe-Met-Biotin).

[2] = tested on: 70S ribosome peptidyltransferase; experiment: Peptidyltransferase activity assay in the presence of antibiotics, 70S ribosome; details: 100 μM antibiotic; 70S versus 50S
Method: as §1, §2, §3
(§4) Reaction conditions for these studies were the same as described above.

[3] = tested on: 50S ribosome peptidyltransferase; experiment: Peptidyltransferase activity assay in the presence of antibiotics, 50S ribosome; details: 100 μM antibiotic, tRNA-Met-Biotin versus CCA-Met-Biotin substrate
Method: as §1
Reactions were initiated by addition of ^32P-CCA-NH-Phe. A 1-μL aliquot of the reaction mixture was removed at specific time points, quenched with 2 μL quench buffer (formamide +0.05% xylene cyanol), and loaded on 24%/7.5 M urea polyacrylamide denaturing gel. Reaction products were quantitated with a Molecular Dynamics PhosphorImager™, and the fraction of individual product relative to total reactants was plotted against time (see FIGS. 11-14).
as §4

| SMILES | Inhibition of peptidyltransferase activity (gel-shift, FIG. 10A) [1] | Inhibition of 70S reactions compared with 50S reactions [2] | Effect on activity of 50S-tRNA compared with 50S-CCA [3] |
| --- | --- | --- | --- |
| O=C(N[C@H](CO)[C@H](O)c1ccc([N+](=O)[O-])cc1)C(Cl)Cl [chloramphenicol] | greatly inhibited |  |  |
| CC[C@H]1OC(=O)[C@H](C)[C@@H](O[C@H]2C[C@@](C)(OC)[C@@H](O)[C@H](C)O2)[C@H](C)[C@@H](O[C@@H]2O[C@H](C)C[C@H](N(C)C)[C@H]2O)[C@](C)(O)C[C@@H](C)C(=O)[C@H](C)[C@@H](O)[C@]1(C)O [erythromycin] | greatly inhibited | much more strongly than 50S reactions |  |
| COc1ccc(C[C@H](N)C(=O)N[C@H]2[C@@H](O)[C@H](n3cnc4c(N(C)C)ncnc43)O[C@@H]2CO)cc1 [puromycin] | does not significantly inhibit | much more strongly than 50S reactions |  |
| CSC[S@+]([O-])C[C@H](CO)NC(=O)/C=C/c1c(C)[nH]c(=O)[nH]c1=O [sparsomycin] | greatly inhibited |  | much less unaffected than that of 50S-CCA |
| [H]/N=C(/N)N[C@H]1[C@H](O)[C@@H](O)[C@H](O[C@@H]2O[C@@H](C)[C@](O)(C=O)[C@H]2O[C@@H]2O[C@@H](CO)[C@H](O)[C@@H](O)[C@@H]2NC)[C@@H](N/C(N)=N\[H])[C@@H]1O [streptomycin] | not inhibited |  |  |
